Values quoted from earlier work, collected in patent US20050266073A1, “Fast disintegrating granules containing bromhexin/bromhexinhydrochloride, process for their preparation, and their use in veterinary medicine” (Boehringer Ingelheim Vetmedica GmbH, priority 2004, published 2005).

Legend:
[1] = not given; remark: listed apart in the source

| Structure (SMILES) | solubility in water [g/250 ml] | solubility in water (in words) | solubility in ethanol, methanol and methylene chloride (in words) [1] |
| --- | --- | --- | --- |
| CN(Cc1cc(Br)cc(Br)c1N)C1CCCCC1 [Bromhexin, N-cyclohexyl-N-methyl-(2-amino-3,5-dibrombenzyl)amine] | 1 | soluble with difficulty | – |
| CN(Cc1cc(Br)cc(Br)c1N)C1CCCCC1.Cl [Bromhexinhydrochloride] | – | – | dissolves with difficulty |
